The source of these data is patent US9809586B2, “Inhibitors of collagen prolyl 4-hydroxylase” (WISCONSIN ALUMNI RESEARCH FOUNDATION, priority 2015, dated 2017).

One series concerns the target T1, human CP4H1 (Homo sapiens, UniProt P13674).
T1 construct: made in house; host or cells: Origami B(DE3) Escherichia coli
Description: Assay of human CP4H1 activity in the presence of inhibitors. The class given is biochemical. The settings on record: 10 μM compound, 50 μM FeSO4. On the procedure:
The catalytic activity of human CP4H1 was assayed as described previously.^35 Briefly, activity assays were carried out at 30° C. in 100 μL Tris-HCl buffer, pH 7.8, containing human CP4H1 (100 nM), inhibitor (0-500 μM), substrate (dansylGlyProProGlyOEt, 500 μM), FeSO4 (50 μM), BSA (1 mg/mL), catalase (0.1 mg/mL), sodium ascorbate (2 mM), DTT (100 μM), and α-ketoglutarate (100 μM). Reactions were pre-incubated with or without inhibitor for 2 min at 30° C., after which the reaction was initiated by the addition of α-ketoglutarate. After 15 min, reactions were quenched by boiling for 45 s and centrifuged at 10,000 g. The supernatant (20-50 μL) was injected into a Nucleodur® C18 Gravity reversed-phase column (4.6×250 mm, 5 μm particle size) from Macherey-Nagel (Bethlehem, Pa.). The column was eluted at 1 mL/min with a gradient (20 min) of aqueous acetonitrile (20-45% v/v) containing 0.1% v/v TFA. The absorbance of the eluent was monitored at 289 nm. All assays were performed in triplicate. Data are reported as activity relative to control reactions lacking inhibitor, where catalytic activity is determined from the percent conversion of substrate to product. Dose-response curves were generated for each inhibitor by plotting the relative activity versus the log of the inhibitor concentration. IC50-values for each inhibitor were interpolated from the data by non-linear regression using the sigmoidal dose-response function available in Prism.

In the next series the test system is HEK293T cells. Description: Effect on iron metabolism (immunoblots for ferritin, TfR, HIF-1α) in HEK293T cells. The class given is cell-based, human. The settings on record: for Iron deficient phenotype: HEKs, 100 μM, details in Vasta et al. 2015; for Level of TFR, HIF-1α, or ferritin: HEK cells, diethyl pyimDC at low levels. Background: In western blotting, separated proteins are transferred to a membrane and probed.

Series [1] relates to MDA-MB-231 breast cancer cells. Description: Effect on iron metabolism (immunoblots for ferritin, TfR, HIF-1α) in MDA-MB-231 cells. The following applies: for Iron deficient phenotype: MDA-MB-231 (231s), 100 μM, details in Vasta et al. 2015.
Description: (§1) MDA-MB-231 or HEK293T cells were plated at 50,000 cells/well into 12-well plates and grown to confluence (˜24 h) as described in Section X. The cells were washed, and the medium was replaced with 1.0 mL of serum-free medium. Stock solutions of all test compounds were prepared at 100× in DMSO and added to a final concentration of 1× (0.1-0.5 mM). After addition of the test compound or DMSO vehicle, cells were incubated for 24 h. The cells were then washed with 100 μL MPER solution from Thermo Fisher Scientific (Waltham, Mass.) and collected. Protein concentrations were determined by BCA assay (Thermo Fisher Scientific), and samples corresponding to 40 μg total protein were analyzed by immunoblot.
(§2) For all immunoblot analyses, protein samples where boiled in SDS-PAGE buffer, separated by electrophoresis through a Tris-glycine SDS-PAGE gel from Bio-Rad Laboratories (Hercules, Calif.), and subsequently transferred to a PVDF membrane for immunoblotting. All primary antibodies were used at the working dilution specified by the manufacturer. Primary antibodies were visualized using a complementary secondary antibody fused to horseradish peroxidase (HRP), with detection of HRP by chemiluminescence, imaging using an ImageQuant LAS 4000 (GE Healthcare), and quantification by densitometry (ImageJ software). The anti-rabbit antibody from Promega and the anti-mouse antibody from Abbiotec (San Diego, Calif.) were used at the working dilution specified by the manufacturer.
(§3) For investigations of iron metabolism, protein samples (40 μg) were separated by SDS-PAGE through a 12% w/v acrylamide gel, and blots were probed with primary antibodies to human ferritin (rabbit monoclonal) from Abcam (Cambridge, Mass.), human transferrin receptor (mouse monoclonal) from Invitrogen, human HIF-1α (mouse monoclonal) from BD Biosciences, and human β-actin (rabbit monoclonal) from Cell Signaling Technology (Danvers, Mass.). Quantifications were normalized to the signal from β-actin, after which treated samples were compared to vehicle-treated controls.
The subject of series [2] is MDA-MB-231 cells. Kind of series: Cytotoxicity assay (MTS). The following applies: MDA-MB-231, 24 h; higher than aqueous solubility limit. The class given is cell-based. The method, then:
The toxicity of esterified biheteroaryl compounds for human breast cancer cells was evaluated with the CellTiter 96® AQueous One Solution Cell Proliferation Assay (MTS) from Promega (Madison, Wis.). Briefly, MDA-MB-231 cells grown as described in Section X were plated at a concentration of 5,000 cells/well in a clear 96-well plate. The cells were allowed to adhere for 4 h, after which the medium was removed and discarded. Fresh medium was added and the cells were treated with varying concentrations of the test compound at 37° C. for 24 h. The medium was removed, and cells were washed with Dulbecco's PBS. The MTS reagent was added at a ratio of 1:5, and the cells were incubated at 37° C. for 2 h before measuring the absorbance at 490 nm. The average absorbance was measured in triplicate for each concentration tested, and the entire experiment was repeated in duplicate. The percentage of viable cells was determined by normalizing to a PBS control (100% viable), and a H2O2 control (0% viable). For all of the compounds tested, the LD50-value could not be measured due to its being higher than the aqueous solubility limit: diethyl bipy55′DC, LD50>100 μM; diethyl pyimDC, LD50>1000 μM; diethyl pythiDC, LD50>500 μM.

For the next series, the system named is IRPs. Kind of series: Electrophoretic mobility shift assay for IRE-binding by IRPs from treated cells. In kind it is cell-based, human. The settings on record: treated MDA-MB-231 cells, 24 h, radiolabeled RNA ligand. On the procedure:
The resultant pellets (˜50 μL) were washed with PBS and then lysed using a protocol described previously.^41 Briefly, cell pellets were resuspended in 200 μL of cell lysis buffer, which was 20 mM Hepes-HCl buffer, pH 7.4, containing sodium pyrophosphate (10 mM), sodium fluoride (50 mM), β-glycerophosphate (50 mM), EDTA (5 mM), GTP (1 mM), sodium orthovanadate (1 mM), benzamidine hydrochloride (2 mM), Nonidet NP-40 (0.5% v/v), p-nitrophenyl p′-guanidinobenzoate-HCl (25 μg/mL), DTT (1 mM), leupeptin (40 μg/mL), pepstatin (4 μg/mL), SBTI (100 μg/mL), MG132 (10 μM), PMSF (200 μM), and BHT (5 μg/mL) by vortexing and lysed on ice by vortexing every few min. After 15 min, the lysates were centrifuged at 14,000 rpm and the supernatants aliquoted and stored at −80° C. until analysis by an electrophoretic mobility shift assay (EMSA).
EMSAs were performed and quantified essentially as described previously.^42 Briefly [^32P]-L-ferritin IRE (1 nM RNA, specific radioactivity ˜7,000 dpm/fmol) was incubated with lysate protein (2.5 μg as determined by the Bradford assay) in binding buffer for 10 min on ice. Heparin was added (to 0.5 mg/mL), and the reaction mixture was incubated for an additional 5 min on ice before separating bound and free RNA on a nondenaturing polyacrylamide gel at ambient temperature.
(A gel shift assay detects complexes by their altered migration in electrophoresis.)

The test system of series [3] is MDA-MB-231 cells. Description: Effect on secretion of type I collagen into conditioned media. The class given is cell-based, human. On the procedure:
For investigations of collagen secretion, protein samples were separated by SDS-PAGE through a 7.5% w/v acrylamide gel. Blots were first stained for total protein using Ponceau S, after which they were probed with a primary antibody to human type-I collagen (α1) (rabbit polyclonal) from Novus Biologicals (Littleton, Colo.).
After the addition of a test compound or vehicle (DMSO), cells were incubated for 48 h, after which 1.0 mL of conditioned medium was removed and added to 4.0 mL of chilled acetone (−20° C.). The resultant mixtures were incubated for 3 h at −20° C., after which the precipitated protein was pelleted by centrifugation at 10,000 g for 30 min. The supernatants were discarded and the pellets dried briefly in a fume hood. Pellets were stored at −20° C. prior to analysis with an immunoblot.

For the next series, the system named is P4HA1. Description: Effect on P4HA1 levels (immunoblot). The following applies: MDA-MB-231. The class given is cell-based, human. The method, then: For investigations of P4HA1 levels, protein samples were treated and quantified as described above for iron metabolism except that the blots were probed with primary antibodies to human P4HA1 (rabbit polyclonal) from Thermo Fisher Scientific and human β-actin.

Series [4] is described as follows: Estimate of pKa by potentiometric titration. In kind it is physicochemical. The settings on record: water; conjugate acid, estimated by titration of the entire compound. On the procedure: The pKa value of biheteroaryl compounds was estimated with potentiometric titration. Compounds (5-10 mM) were dissolved in water and the pH was adjusted to ˜12 by adding 10 M NaOH. The pH of the solution was recorded with an Accumet™ XL500 pH meter equipped with an Orion 912600® pH electrode from Thermo Fisher Scientific while titrating the solution with HCl (1 M or […], as necessary) until a pH value of ˜1.75 was achieved. Titration curves were prepared by plotting the solution pH versus the volume of 1 M HCl added, and pKa values were estimated from derivative plots of the titration curves using Prism software.

Series [5] is described as follows: Assay of Fe(II)-affinity for biheteroaryl ligands (Fe20-EC50 titration, spectrophotometry). In kind it is physicochemical. The settings on record: titration of 20 μM FeSO4, pH 7; mean (±SE) of three replicates. The method, then:
A library of biheteroaryl compounds (FIG. 2) was prepared and evaluated them as iron chelators in vitro. The library was assembled either from commercial vendors (pypyr and pyim) or by synthesis using palladium-catalyzed cross-coupling reactions (pypyraz, pypyrid, pyox, and pythi). To evaluate the iron affinity of these compounds in vitro, titration experiments were performed to determine the half-maximal concentration required to form a complex with 20 μM Fe(II) at pH 7.0.
The affinity of biheteroaryl ligands for Fe(II) was determined comparatively by measuring the half-maximal concentration (EC50) required for binding 20 μM Fe(II) (Fe20-EC50) in sodium phosphate buffer at pH 7. Stock solutions of ligands were prepared in either water for high affinity ligands (typically Fe20-EC50<1 mM) or DMSO for low affinity ligands (typically Fe20-EC50>1000 μM). Stock solutions of FeSO4 were prepared in H2O and used within 3 hours of preparation. […] For high affinity ligands, solutions were allowed to equilibrate for 15 min, after which the absorbance was recorded at the λmax for the complex under study. For most low affinity ligands, the corresponding Fe(II) complexes were unstable and observed to dissociate over time. Therefore, the absorbance value was determined within 30 s of mixing, where the absorbance was measured at the λmax for the complex under study. Complexes with pyox were not observed under these conditions. Absorbance values were corrected by subtracting the absorbance value in the absence of ligand. Dose-response curves were generated for each ligand by plotting the absorbance versus the log of the ligand concentration. Fe20-EC50 values for each ligand were interpolated from the dose-response curves by non-linear regression using the sigmoidal dose-response function in Prism. All experiments were performed in triplicate.

For series [6] the following is noted: conjugate acid of pyridine (bipy) or the nonpyridyl ring; cited from earlier work.

T1 sequence (P13674 18-534): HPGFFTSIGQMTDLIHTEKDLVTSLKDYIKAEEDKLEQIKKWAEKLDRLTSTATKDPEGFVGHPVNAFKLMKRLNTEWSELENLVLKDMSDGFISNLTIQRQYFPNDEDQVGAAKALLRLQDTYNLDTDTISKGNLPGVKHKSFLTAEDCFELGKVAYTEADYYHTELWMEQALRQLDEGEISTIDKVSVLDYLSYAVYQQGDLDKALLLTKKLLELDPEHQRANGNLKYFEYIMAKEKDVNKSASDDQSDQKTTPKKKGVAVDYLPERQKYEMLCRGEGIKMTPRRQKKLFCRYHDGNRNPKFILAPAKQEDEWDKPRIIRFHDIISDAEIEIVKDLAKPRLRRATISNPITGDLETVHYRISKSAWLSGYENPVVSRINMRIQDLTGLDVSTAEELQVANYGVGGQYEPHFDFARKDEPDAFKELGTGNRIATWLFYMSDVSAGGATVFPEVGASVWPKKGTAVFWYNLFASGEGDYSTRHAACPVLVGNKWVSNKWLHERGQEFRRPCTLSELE
T1 sequence (P07237 18-508 partner): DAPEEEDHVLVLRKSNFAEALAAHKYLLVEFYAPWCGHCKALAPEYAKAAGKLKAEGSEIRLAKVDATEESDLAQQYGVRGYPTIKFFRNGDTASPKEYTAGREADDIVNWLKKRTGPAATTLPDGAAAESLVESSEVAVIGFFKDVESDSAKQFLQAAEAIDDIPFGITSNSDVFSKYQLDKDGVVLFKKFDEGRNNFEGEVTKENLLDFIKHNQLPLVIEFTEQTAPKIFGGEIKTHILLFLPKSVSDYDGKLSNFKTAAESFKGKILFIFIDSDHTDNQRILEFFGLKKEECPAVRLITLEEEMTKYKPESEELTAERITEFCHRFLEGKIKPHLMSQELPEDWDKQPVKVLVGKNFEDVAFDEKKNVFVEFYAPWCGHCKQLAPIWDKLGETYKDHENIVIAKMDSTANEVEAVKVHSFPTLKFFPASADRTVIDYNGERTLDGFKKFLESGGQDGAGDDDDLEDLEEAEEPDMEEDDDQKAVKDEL
Description for HEK293T cells: as §1, §2, §3

Take `Cn1c(C(=O)O)cnc1-c1ccc(C(=O)O)cn1` [NMe-pyimDC, 2-(5-Carboxy-1-methyl-1H-imidazol-2-yl)pyridine-5-carboxylic Acid]: the “Inhibition of catalytic activity of human CP4H1 in initial screen” value (“Inhibition” below) at human CP4H1 is recorded as “potency is less than that of pyimDC”.
For the compound `CCOC(=O)c1ccnc(-c2cc(C(=O)OCC)ccn2)c1` [diethyl bipy44′DC, reference compound], the Iron deficient phenotype result (with HEK293T cells; in [1]) was “distinct iron deficient phenotype” throughout.
As to `CCOC(=O)c1ccc(-c2cc(C(=O)OCC)ccn2)nc1` [diethyl bipy45′DC, Diethyl 2,2′-bipyridine-4,5′-dicarboxylate, reference compound], the Iron deficient phenotype entry (in the series on HEK293T cells; in series [1]) was “did not cause iron deficiency” throughout.
Turning to `CCOC(=O)c1ccc(-c2ccc(C(=O)OCC)cn2)nc1` [diethyl bipy55′DC, Diethyl 2,2′-bipyridine-5,5′-dicarboxylate, reference compound], the LD50 with MDA-MB-231 cells [2] was over 100 µM. In addition, the Iron deficient phenotype entry (in the series with HEK293T cells; in series [1]) was “did not cause iron deficiency” in each case.
Compound `CCOC(=O)c1ccc(-c2ncc(C(=O)OCC)s2)nc1` [diethyl pythiDC, Ethyl 2-(5-ethoxycarbonylthiazol-2-yl)pyridine-5-carboxylate] registered an LD50 in the series with MDA-MB-231 cells [2] of over 500 µM. The “Level of TFR, HIF-1α, or ferritin” value with HEK293T cells is reported as “did not affect”. In addition, the “RNA binding by IRPs” value with IRPs was “did not”. For the same compound, the “Efficacy on collagen secretion compared with diethyl bipy55′DC” value in the series with MDA-MB-231 cells [3] (MDA-MB-231) is “indistinguishable”. Also, the “Level of secreted type I collagen” value with MDA-MB-231 cells [3] (MDA-MB-231, 48 h, conditioned media) is “reduced the level of secreted collagen significantly”. The “Levels of human CP4H1 (P4HA1) itself” value in the series with P4HA1 is “did not appear to affect”. The “Concentration at which no iron-deficient phenotype is observed” value in series [1] (MDA-MB-231, 24 h) was at most 500 µM. For the same compound, the “Iron-deficiency phenotype of treated cells” value in [1] (MDA-MB-231, 24 h, EDHB 500 μM, diethyl pythiDC up to 500 μM) was “normal”.
Take `c1ccc(-c2ncc[nH]2)nc1` [pyim, 2-(1H-Imidazol-2-yl)pyridine, reference compound]: the pKa – broadly, the negative logarithm of the acid dissociation constant – in series [4] was 5.4. Moreover, the EC50 (as a rule, the concentration that produces a half-maximal response) in series [5] was 900 ± 30 µM. For the same compound, the “Level of TFR, HIF-1α, or ferritin” value in the series with HEK293T cells is “did not affect”. The “Heteroaryl pKa (ref.)” value in series [6] is on record as 7.1 (51).
With `c1ccc(-c2ncco2)nc1` [pyox, 2-(Oxazol-2-yl)pyridine], in [4], the pKa is under 3. The EC50 in [5] is over 18000 µM. Further, the “Heteroaryl pKa (ref.)” value in [6] is 0.8 (54).
For the compound `c1ccc(-c2cc[nH]n2)nc1` [pypyr, 2-(1H-pyrazol-3-yl)pyridine, reference compound], the pKa in series [4] was 4.1. In [5], this compound returned an EC50 of 2250 ± 100 µM. The “Heteroaryl pKa (ref.)” value in series [6] is 2.5 (52).
`O=C(O)c1ccc(-c2cc(C(=O)O)[nH]n2)nc1` [pypyrDC, 2-(5-Carboxy-1H-pyrazol-3-yl)pyridine-5-carboxylic Acid]: the “Inhibition” value at human CP4H1 was “modest activation”.
In the case of `c1ccc(-c2cnccn2)nc1` [pypyraz, 2-(Pyridin-2-yl)pyrazine], the pKa in series [4] was under 3. The compound further registered an EC50 in [5] of 400 ± 7 µM. Besides, the “Heteroaryl pKa (ref.)” value in series [6] is reported as 0.8 (50).
As to `O=C(O)c1ccc(-c2ccc(C(=O)O)nn2)nc1` [pypyridDC, 6-(5-Carboxypyridin-2-yl)pyridazine-3-carboxylic Acid], the “Inhibition” value on human CP4H1 is given as “modest activation”.
For `c1ccc(-c2cccnn2)nc1` [pypyrid], in series [4], the pKa is under 3. Further, the EC50 in series [5] is 124 ± 1 µM. For the same compound, in [6], the “Heteroaryl pKa (ref.)” value is on record as 2.3 (49).
For the compound `c1ccc(-c2nccs2)nc1` [pythi, 2-(Thiazol-2-yl)pyridine], in [4], the pKa is under 3. The half-maximal effective concentration (EC50) in series [5] is 5100 ± 100 µM. Also, the “Level of TFR, HIF-1α, or ferritin” value in the series on HEK293T cells is “did not affect”. Also, the “Heteroaryl pKa (ref.)” value in series [6] is 2.5 (53).
